14 compounds from ChEMBL document CHEMBL4715909, “Identification of Plasmodium falciparum heat shock 90 inhibitors via molecular docking” (Bioorg Med Chem Lett, 2021) can be followed below.

The first series has as its system Plasmodium falciparum. The series can be described thus: Antimalarial activity against Plasmodium falciparum 3D7 assessed as reduction in parasitic growth. In kind it is functional, organism-based.
A word on the EC50: it is the concentration that produces a half-maximal response. For `O=C(N[C@H]1CCc2ccccc21)C1CCN(c2ncccc2-c2nc(-c3ccccc3)no2)CC1`, the EC50 came to 1.11 µM. On the same count and under the same terms, as for `Cc1c(C(=O)Nc2ccc3ccc(=O)oc3c2)nnn1-c1ccc2noc(-c3ccccc3)c2c1`, the figure is 15.7 µM. In the case of `c1ccc(-c2nnn3c2nc(N2CCN(Cc4ccc5c(c4)OCO5)CC2)c2ccccc23)cc1`, the EC50 was 17 µM. Still for that read-out and setting: as for `O=C(c1cccc(S(=O)(=O)N2CCc3ccccc32)c1)N1CCC(c2nnc3ccccn23)CC1`, the figure is over 18 µM; as for `O=C(c1cccc(Nc2nc3ccccc3n3nnnc23)c1)N1CCc2ccccc2C1`, 3.44 µM; as for `Cc1cccc(-c2nc(C3CCN(C(=O)[C@H]4CC(=O)N(c5ccc(C)c(C)c5)C4)CC3)no2)c1`, 12.1 µM. Still for that read-out and setting: to `O=C(NCc1ccc2c(c1)OCO2)C1CCN(c2ncnc3onc(-c4cccc(F)c4)c23)CC1` belongs 0.98 µM; to `O=C(CCn1c(=O)c2ccccc2n(Cc2ccccc2F)c1=O)N1CCc2ccccc2C1`, over 18 µM. `Cc1nnc(-c2nn(-c3ccc(C(=O)N4CCC[C@H](C)C4)cc3)c(-c3ccc(F)cc3)c2C)o1`: the EC50 was determined as 5.5 µM. The same measure, in the same setting: to `O=C(c1ccc2noc(-c3ccccc3)c2c1)N1CCC[C@H](c2nnc3ccccn23)C1` belongs over 18 µM. Same read-out and setting: as for `O=C1CN(C(=O)CN2C[C@H](C(=O)N3CCCCC3)Oc3ccccc32)c2ccccc2N1`, the figure is over 18 µM. Turning to `O=C(Cc1ccc2c(c1)OCO2)N1CCC(c2nc(=O)c3nnn(Cc4ccccc4F)c3[nH]2)CC1`, the EC50 is 12.7 µM.

For another series, the system named is BJ. The series can be described thus: Cytotoxicity against human BJ cells assessed as reduction in cell viability. In kind it is cell-based.
As to `O=C(N[C@H]1CCc2ccccc21)C1CCN(c2ncccc2-c2nc(-c3ccccc3)no2)CC1`, the EC50 is over 24 µM.

`Cc1c(C(=O)Nc2ccc3ccc(=O)oc3c2)nnn1-c1ccc2noc(-c3ccccc3)c2c1`: the EC50 was over 24 µM. Still for that read-out and setting: to `c1ccc(-c2nnn3c2nc(N2CCN(Cc4ccc5c(c4)OCO5)CC2)c2ccccc23)cc1` belongs over 24 µM. In the case of `O=C(c1cccc(S(=O)(=O)N2CCc3ccccc32)c1)N1CCC(c2nnc3ccccn23)CC1`, the EC50 was over 24 µM. Still for that read-out and setting: as for `O=C(c1cccc(Nc2nc3ccccc3n3nnnc23)c1)N1CCc2ccccc2C1`, the figure is over 24 µM; as for `Cc1cccc(-c2nc(C3CCN(C(=O)[C@H]4CC(=O)N(c5ccc(C)c(C)c5)C4)CC3)no2)c1`, over 24 µM.

Regarding `O=C(NCc1ccc2c(c1)OCO2)C1CCN(c2ncnc3onc(-c4cccc(F)c4)c23)CC1`, the EC50 was over 24 µM. The same measure, in the same setting: to `O=C(CCn1c(=O)c2ccccc2n(Cc2ccccc2F)c1=O)N1CCc2ccccc2C1` belongs over 24 µM.

Regarding `Cc1nnc(-c2nn(-c3ccc(C(=O)N4CCC[C@H](C)C4)cc3)c(-c3ccc(F)cc3)c2C)o1`, the EC50 is over 24 µM. On the same count and under the same terms, as for `O=C(c1ccc2noc(-c3ccccc3)c2c1)N1CCC[C@H](c2nnc3ccccn23)C1`, the figure is over 24 µM; as for `O=C1CN(C(=O)CN2C[C@H](C(=O)N3CCCCC3)Oc3ccccc32)c2ccccc2N1`, over 24 µM; as for `O=C(Cc1ccc2c(c1)OCO2)N1CCC(c2nc(=O)c3nnn(Cc4ccccc4F)c3[nH]2)CC1`, over 24 µM.

The test system of a further series is Plasmodium falciparum. Put plainly: Antimalarial activity against Plasmodium falciparum 3D7 assessed as reduction in parasitic growth at 16 uM relative to control. It is filed as functional. The arrangement: scale not given: the % may be the effect or the level left.
On to `O[C@@H](c1cc(C(F)(F)F)nc2c(C(F)(F)F)cccc12)[C@H]1CCCCN1` [(S,R)-MEFLOQUINE], for which the Activity is reported as 100%.

For a further series, the system named is BJ. The series can be described thus: Cytotoxicity against human BJ cells assessed as reduction in cell viability at 58 uM by relative to control. It is filed as cell-based.
For the compound `CC(=O)[C@]1(O)Cc2c(O)c3c(c(O)c2[C@@H](O[C@H]2C[C@H](N)[C@H](O)[C@H](C)O2)C1)C(=O)c1ccccc1C3=O` [IDARUBICIN], the Activity is given as 100%.
